Laboratory results reported in patent US12129237B2, “Substituted diaminocarboxamide and diaminocarbonitrile pyrimidines, compositions thereof, and methods of treatment therewith” (SIGNAL PHARMACEUTICALS, LLC, priority 2011, dated 2024).
pIC50: −log10 of the molar value.

molecular target: T1, JNK1 (Homo sapiens, UniProt P45983); experiment: JNK1 biochemical assays (one or more of: time resolved fluorescence, Z'-LYTE Cascade, radioactive); details: Table 2; JNK1 IC50 activity level; read-out: Act. Level
T1 construct: purchased Carna Biosciences
T1 sequence (P45983 whole entry): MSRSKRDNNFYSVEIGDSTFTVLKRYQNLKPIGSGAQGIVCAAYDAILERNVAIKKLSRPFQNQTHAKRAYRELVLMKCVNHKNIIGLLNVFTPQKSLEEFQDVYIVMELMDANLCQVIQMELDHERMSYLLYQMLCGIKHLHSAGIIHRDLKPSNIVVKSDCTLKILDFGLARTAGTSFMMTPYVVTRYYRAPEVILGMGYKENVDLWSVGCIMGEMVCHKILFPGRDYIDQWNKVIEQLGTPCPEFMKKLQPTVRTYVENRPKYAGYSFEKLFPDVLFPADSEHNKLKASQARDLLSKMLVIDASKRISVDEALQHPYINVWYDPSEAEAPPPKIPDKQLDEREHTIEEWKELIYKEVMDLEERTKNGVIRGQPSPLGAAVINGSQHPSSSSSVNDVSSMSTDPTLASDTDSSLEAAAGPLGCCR

**Q.** With `CN(C)CCNc1ncc(C(N)=O)c(Nc2ccccc2)n1` [Example B-61, 2-(2-(dimethylamino)ethylamino)-4-(phenylamino)pyrimidine-5-carboxamide] as the compound, how does the pIC50 read?
**A.** Its pIC50 is 5.00 to 6.00.

**Q.** With `CC1(C)CCC(Nc2ncc(C(N)=O)c(N[C@@H]3CCC[C@H](O)C3)n2)c2ccccc21` (stereo partly drawn) [Example B-99, 2-(4,4-dimethyl-1,2,3,4-tetrahydronaphthalen-1-ylamino)-4-((1R,3S)-3-hydroxycyclohexylamino)pyrimidine-5-carboxamide] as the compound, how does the pIC50 read?
**A.** The pIC50 was 6.10 to 6.70.

**Q.** How did the pIC50 turn out when `NC(=O)c1cnc(NC2CCCCC2)nc1Nc1ccccc1` [Example B-45, 2-(cyclohexylamino)-4-(phenylamino)pyrimidine-5-carboxamide] was run?
**A.** Its pIC50 is greater than 6.70.

**Q.** How did the pIC50 turn out when `NC(=O)c1cnc(N[C@@H]2CCCc3ccccc32)nc1N[C@@H]1CCC[C@H](O)C1` [Example B-74, 4-((1R,3S)-3-hydroxycyclohexylamino)-2-((R)-1,2,3,4-tetrahydronaphthalen-1-ylamino)pyrimidine-5-carboxamid] was run?
**A.** Its pIC50 is greater than 6.70.

**Q.** How did the pIC50 turn out when `CC(=O)N1CCC(Nc2ncc(C(N)=O)c(Nc3ccccc3)n2)CC1` [Example B-10, 2-(1-acetylpiperidin-4-ylamino)-4-(phenylamino)pyrimidine-5-carboxamide] was run?
**A.** The pIC50 was 5.00 to 6.00.

same assay, conditions: Table 3; JNK1 IC50 activity level; read-out: Act. Level

**Q.** `CO[C@H]1CC[C@H](Nc2ncc(C#N)c(N[C@@H]3CCC[C@](C)(O)C3)n2)CC1` [Example C-19, 4-((1R,3S)-3-hydroxy-3-methylcyclohexylamino)-2-((1r,4R)-4-methoxycyclohexylamino) pyrimidine-5-carbonitrile] was tested. Which pIC50 did it give?
**A.** Its pIC50 is greater than 6.70.

**Q.** How did the pIC50 turn out when `CO[C@H]1CC[C@H](Nc2ncc(C#N)c(N[C@@H]3CCC[C@H]3O)n2)CC1` [Example C-18, 4-((1R,2R)-2-hydroxycyclopentylamino)-2-((1r,4R)-4-methoxycyclohexylamino) pyrimidine-5-carbonitrile] was run?
**A.** Its pIC50 is greater than 6.70.

**Q.** With `CC(=O)N[C@H]1CC[C@H](Nc2ncc(C#N)c(N[C@@H]3CCC[C@H](O)C3)n2)CC1` [Example C-13, N-((1R,4r)-4-(5-cyano-4-((1R,3S)-3-hydroxycyclohexylamino)pyrimidin-2-ylamino)cyclohexyl)acetamide] as the compound, how does the pIC50 read?
**A.** Its pIC50 is greater than 6.70.

**Q.** With `N#Cc1cnc(N[C@H]2CC[C@H](O)CC2)nc1NC12CC(C1)C2` [Example C-61, 4-(bicyclo[1.1.1]pentan-1-ylamino)-2-((1r,4r)-4-hydroxycyclohexylamino) pyrimidine-5-carbonitrile] as the compound, how does the pIC50 read?
**A.** The pIC50 was 6.10 to 6.70.

**Q.** `CCO[C@H]1CC[C@H](Nc2ncc(C#N)c(N[C@@H]3CCC[C@H](O)C3)n2)CC1` [Example C-2, 2-((1r,4R)-4-ethoxycyclohexylamino)-4-((1R,3S)-3-hydroxycyclohexylamino) pyrimidine-5-carbonitrile] was tested. Which pIC50 did it give?
**A.** The pIC50 was greater than 6.70.

**Q.** With `CO[C@H]1CC[C@H](Nc2ncc(C#N)c(N[C@@H]3CCCC[C@H](O)C3)n2)CC1` [Example C-27, 4-((1R,3S)-3-hydroxycycloheptylamino)-2-((1r,4R)-4-methoxycyclohexylamino) pyrimidine-5-carbonitrile] as the compound, how does the pIC50 read?
**A.** The pIC50 was greater than 6.70.

same assay, conditions: one or more of the JNK1 biochemical assays; read-out: Act. Level (JNK1 IC50 activity level)

**Q.** How did the pIC50 turn out when `C[C@@H]1CC[C@@H](Nc2nc(NC3CCOCC3)ncc2C(N)=O)C[C@H]1O` [Example 208, 4-((1R,3R,4R)-3-hydroxy-4-methylcyclohexylamino)-2-(tetrahydro-2H-pyran-4-ylamino)pyrimidine-5-carboxamide] was run?
**A.** The pIC50 was greater than 6.70.

**Q.** With `CCC1(Nc2nc(N[C@H]3CC[C@H](O)CC3)ncc2C(N)=O)CCC1` [Example 362, 4-(1-ethylcyclobutylamino)-2-((1r,4r)-4-hydroxycyclohexylamino)pyrimidine-5-carboxamide] as the compound, how does the pIC50 read?
**A.** Its pIC50 is greater than 6.70.

**Q.** How did the pIC50 turn out when `CC1CCC1Nc1nc(N[C@H]2CC[C@H](O)CC2)ncc1C(N)=O` (stereo partly shown) [Example 246, 2-((1r,4r)-4-hydroxycyclohexylamino)-4-(2-methylcyclobutylamino)pyrimidine-5-carboxamide] was run?
**A.** Its pIC50 is greater than 6.70.

**Q.** `CC(C)[C@@H](C)Nc1nc(N[C@H]2CC[C@H](O)CC2)ncc1C(N)=O` [Example 292, 2-((1r,4R)-4-hydroxycyclohexylamino)-4-((R)-3-methylbutan-2-ylamino)pyrimidine-5-carboxamide] was tested. Which pIC50 did it give?
**A.** The pIC50 was greater than 6.70.

**Q.** `CC(C)(C)Nc1ncc(C(N)=O)c(N[C@@H]2CCC[C@](C)(O)C2)n1` [Example 213, 2-(tert-butylamino)-4-((1R,3S)-3-hydroxy-3-methylcyclohexylamino)pyrimidine-5-carboxamide] was tested. Which pIC50 did it give?
**A.** The pIC50 was greater than 6.70.

**Q.** With `CC1(Nc2nc(N[C@H]3CC[C@H](O)CC3)ncc2C(N)=O)CCCCC1` [Example 357, 2-((1r,4r)-4-hydroxycyclohexylamino)-4-(1-methylcyclohexylamino)pyrimidine-5-carboxamide] as the compound, how does the pIC50 read?
**A.** Its pIC50 is greater than 6.70.

**Q.** How did the pIC50 turn out when `NC(=O)c1cnc(NC2CCC2)nc1N[C@@H]1CCC[C@H](O)C1` [Example 341, 2-(cyclobutylamino)-4-((1R,3S)-3-hydroxycyclohexylamino)pyrimidine-5-carboxamide] was run?
**A.** Its pIC50 is greater than 6.70.

**Q.** `CC(C)(C)Nc1nc(N[C@@H]2CCCOC2)ncc1C(N)=O` [Example 301, (R)-4-(tert-butylamino)-2-(tetrahydro-2H-pyran-3-ylamino)pyrimidine-5-carboxamide] was tested. Which pIC50 did it give?
**A.** Its pIC50 is greater than 6.70.

**Q.** How did the pIC50 turn out when `C[C@H](Nc1nc(N[C@H]2CC[C@H](O)CC2)ncc1C(N)=O)C1CC1` [Example 263, 4-((S)-1-cyclopropylethylamino)-2-((1r,4S)-4-hydroxycyclohexylamino)pyrimidine-5-carboxamide] was run?
**A.** The pIC50 was greater than 6.70.

**Q.** `CCCC(C)(C)Nc1nc(N[C@H]2CC[C@H](O)CC2)ncc1C(N)=O` [Example 390, 2-((1r,4r)-4-hydroxycyclohexylamino)-4-(2-methylpentan-2-ylamino)pyrimidine-5-carboxamide] was tested. Which pIC50 did it give?
**A.** The pIC50 was greater than 6.70.

**Q.** How did the pIC50 turn out when `CCC(C)(C)Nc1ncc(C(N)=O)c(N[C@@H]2CCCC[C@H](O)C2)n1` [Example 349, 4-((1R,3S)-3-hydroxycycloheptylamino)-2-(tert-pentylamino)pyrimidine-5-carboxamide] was run?
**A.** Its pIC50 is greater than 6.70.

**Q.** How did the pIC50 turn out when `CC(C)[C@H](C)Nc1nc(N[C@H]2CC[C@H](O)CC2)ncc1C(N)=O` [Example 284, 2-((1r,4S)-4-hydroxycyclohexylamino)-4-((S)-3-methylbutan-2-ylamino)pyrimidine-5-carboxamide] was run?
**A.** The pIC50 was greater than 6.70.

**Q.** With `CC1(C)CCC(Nc2nc(NC34CC(C3)C4)ncc2C(N)=O)CC1O` (stereo not shown) [Example 432, 2-(bicyclo[1.1.1]pentan-1-ylamino)-4-(3-hydroxy-4,4-dimethylcyclohexylamino)pyrimidine-5-carboxamide] as the compound, how does the pIC50 read?
**A.** Its pIC50 is greater than 6.70.

**Q.** With `CCO[C@H]1CC[C@H](Nc2ncc(C(N)=O)c(NC(C)(C)C(C)C)n2)CC1` [Example 273, 4-(2,3-dimethylbutan-2-ylamino)-2-((1r,4r)-4-ethoxycyclohexylamino)pyrimidine-5-carboxamide] as the compound, how does the pIC50 read?
**A.** Its pIC50 is greater than 6.70.

**Q.** `CC1(Nc2nc(N[C@H]3CC[C@H](O)CC3)ncc2C(N)=O)CCC1` [Example 239, 2-((1r,4r)-4-hydroxycyclohexylamino)-4-(1-methylcyclobutylamino)pyrimidine-5-carboxamide] was tested. Which pIC50 did it give?
**A.** The pIC50 was greater than 6.70.

**Q.** With `C[C@]1(O)CCCC(Nc2nc(NC34CCC(F)(CC3)CC4)ncc2C(N)=O)C1` (stereo partly drawn) [Example 321, 2-(4-fluorobicyclo[2.2.2]octan-1-ylamino)-4-((3S)-3-hydroxy-3-methylcyclohexylamino)pyrimidine-5-carboxamide] as the compound, how does the pIC50 read?
**A.** The pIC50 was greater than 6.70.

same assay, conditions: tested in one or more of the JNK1 biochemical assays; read-out: Act. Level (JNK1 biochemical assay IC50 activity level)

**Q.** `CO[C@H]1CC[C@H](Nc2ncc(C(N)=O)c(N[C@H]3CC[C@@H](CO)CC3)n2)CC1` [Example A-119, 4-((1s,4s)-4-(hydroxymethyl)cyclohexylamino)-2-((1r,4r)-4-methoxycyclohexylamino)pyrimidine-5-carboxamide] was tested. Which pIC50 did it give?
**A.** Its pIC50 is greater than 6.70.

**Q.** How did the pIC50 turn out when `CCO[C@H]1CC[C@H](Nc2ncc(C(N)=O)c(N[C@@H]3CCCC[C@H](O)C3)n2)CC1` [Example A-158, 2-((1r,4R)-4-ethoxycyclohexylamino)-4-((1R,3S)-3-hydroxycycloheptylamino)pyrimidine-5-carboxamide] was run?
**A.** Its pIC50 is greater than 6.70.

**Q.** `CCO[C@H]1CC[C@H](Nc2ncc(C(N)=O)c(N[C@H]3CCC[C@@H]3OC)n2)CC1` [Example A-103, 2-((1r,4S)-4-ethoxycyclohexylamino)-4-((1S,2S)-2-methoxycyclopentylamino)pyrimidine-5-carboxamide] was tested. Which pIC50 did it give?
**A.** The pIC50 was greater than 6.70.

**Q.** With `CCO[C@H]1CC[C@H](Nc2ncc(C(N)=O)c(N[C@@H]3CC[C@@H](C)[C@H](O)C3)n2)CC1` [Example A-172, 2-((1r,4R)-4-ethoxycyclohexylamino)-4-((1R,3R,4R)-3-hydroxy-4-methylcyclohexylamino)pyrimidine-5-carboxamide] as the compound, how does the pIC50 read?
**A.** The pIC50 was greater than 6.70.

**Q.** `CC1(Nc2ncc(C(N)=O)c(N[C@@H]3CCC[C@H](O)C3)n2)CCOCC1` [Example A-151, 4-((1R,3S)-3-hydroxycyclohexylamino)-2-(4-methyltetrahydro-2H-pyran-4-ylamino)pyrimidine-5-carboxamide] was tested. Which pIC50 did it give?
**A.** Its pIC50 is greater than 6.70.

**Q.** How did the pIC50 turn out when `CC(C)Nc1ncc(C(N)=O)c(N[C@H]2CC[C@@H](C(C)(C)O)CC2)n1` [Example A-140, 4-((1s,4s)-4-(2-hydroxypropan-2-yl)cyclohexylamino)-2-(isopropylamino)pyrimidine-5-carboxamide] was run?
**A.** The pIC50 was 6.10 to 6.70.

**Q.** `CCO[C@H]1C[C@H](Nc2ncc(C(N)=O)c(N[C@H]3CCC[C@@H]3O)n2)C1` [Example A-74, 2-((1r,3S)-3-ethoxycyclobutylamino)-4-((1S,2S)-2-hydroxycyclopentylamino)pyrimidine-5-carboxamide] was tested. Which pIC50 did it give?
**A.** The pIC50 was 6.10 to 6.70.

**Q.** How did the pIC50 turn out when `NC(=O)c1cnc(NC2CCC2)nc1N[C@H]1CC[C@@H](C(=O)N2CCCCC2)CC1` [Example A-133, 2-(cyclobutylamino)-4-((1s,4s)-4-(piperidine-1-carbonyl)cyclohexylamino)pyrimidine-5-carboxamide] was run?
**A.** Its pIC50 is 6.00 to 6.10.

**Q.** With `CO[C@H]1CC[C@H](Nc2ncc(C(N)=O)c(NC(C)(C)CCO)n2)CC1` [Example A-35, 4-(4-hydroxy-2-methylbutan-2-ylamino)-2-((1r,4r)-4-methoxycyclohexylamino)pyrimidine-5-carboxamide] as the compound, how does the pIC50 read?
**A.** Its pIC50 is greater than 6.70.

**Q.** How did the pIC50 turn out when `CO[C@H]1CC[C@H](Nc2ncc(C(N)=O)c(N[C@@H]3CCC[C@@H]3CO)n2)CC1` [Example A-36, 4-((1R,2S)-2-(hydroxymethyl)cyclopentylamino)-2-((1r,4R)-4-methoxycyclohexylamino)pyrimidine-5-carboxamide] was run?
**A.** The pIC50 was greater than 6.70.
